Test results taken from patent US20210045385A1, “PYRIDAZINONE-SUBSTITUTED KETOXIMES AS HERBICIDES” (FMC Corporation, priority 2018, published 2021).

What was measured:
Type in all cases: in vivo
[1] = test system: galium (catchweed bedstraw, Galium aparine); experiment: Test A postemergence, visual plant response rating; details: for Galium plant response rating (0 to 100 scale): 500 g ai/ha, postemergence, 0 is no effect, 100 is complete control; for Galium plant response rating: Postemergence, 125 g ai/ha, 0 to 100 scale (0 no effect, 100 complete control)
How it was run: (§1)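 Greenhouse evaluation, approx. 10 days post-spray. Soil: loam + sand. Postemergence stage: 1–2 leaves, height 2–10 cm. Vehicle: non-phytotoxic solvent blend with surfactant. Score: visual injury on a 0 (no effect) to 100 (complete control) scale.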

[2] = test system: pigweed (Amaranthus retroflexus); experiment: Test A postemergence, visual plant response rating; details: for Pigweed plant response rating (0 to 100 scale): 500 g ai/ha, postemergence, 0 is no effect, 100 is complete control; for Pigweed plant response rating: Postemergence, 125 g ai/ha, 0 to 100 scale (0 no effect, 100 complete control)
How it was run: as §1

[3] = test system: kochia (Kochia scoparia); experiment: Test A postemergence, visual plant response rating; details: for Kochia plant response rating (0 to 100 scale): 500 g ai/ha, postemergence, 0 is no effect, 100 is complete control; for Kochia plant response rating: Postemergence, 125 g ai/ha, 0 to 100 scale (0 no effect, 100 complete control)
How it was run: as §1

[4] = test system: ragweed (common ragweed, Ambrosia elatior); experiment: Test A postemergence, visual plant response rating; details: for Ragweed plant response rating (0 to 100 scale): 500 g ai/ha, postemergence, 0 is no effect, 100 is complete control; for Ragweed plant response rating: Postemergence, 125 g ai/ha, 0 to 100 scale (0 no effect, 100 complete control)
How it was run: as §1

[5] = test system: barnyardgrass (Echinochloa crus-galli); experiment: Test A postemergence, visual plant response rating; details: for Barnyardgrass plant response rating (0 to 100 scale): 500 g ai/ha, postemergence, 0 is no effect, 100 is complete control; for Barnyardgrass plant response rating: Postemergence, 125 g ai/ha, 0 to 100 scale (0 no effect, 100 complete control)
How it was run: as §1

[6] = test system: wheat (Triticum aestivum); experiment: Test A postemergence, visual plant response rating; details: for Wheat plant response rating (0 to 100 scale): 500 g ai/ha, postemergence, 0 is no effect, 100 is complete control; for Wheat plant response rating: Postemergence, 125 g ai/ha, 0 to 100 scale (0 no effect, 100 complete control)
How it was run: as §1

[7] = test system: corn (Zea mays); experiment: Test A postemergence, visual plant response rating; details: for Corn plant response rating (0 to 100 scale): 500 g ai/ha, postemergence, 0 is no effect, 100 is complete control; for Corn plant response rating: Postemergence, 125 g ai/ha, 0 to 100 scale (0 no effect, 100 complete control)
How it was run: as §1

[8] = test system: foxtail, giant (giant foxtail, Setaria faberii); experiment: Test A postemergence, visual plant response rating; details: for Foxtail, Giant plant response rating (0 to 100 scale): 500 g ai/ha, postemergence, 0 is no effect, 100 is complete control; for Foxtail, Giant plant response rating: Postemergence, 125 g ai/ha, 0 to 100 scale (0 no effect, 100 complete control)
How it was run: as §1

[9] = test system: Italian ryegrass (Lolium multiflorum); experiment: Test A postemergence, visual plant response rating; details: for Ryegrass, Italian plant response rating (0 to 100 scale): 500 g ai/ha, postemergence, 0 is no effect, 100 is complete control; for Ryegrass, Italian plant response rating: Postemergence, 125 g ai/ha, 0 to 100 scale (0 no effect, 100 complete control)
How it was run: as §1

[10] = test system: blackgrass (Alopecurus myosuroides); experiment: Test A postemergence, visual plant response rating; details: for Blackgrass plant response rating (0 to 100 scale): 500 g ai/ha, postemergence, 0 is no effect, 100 is complete control; for Blackgrass plant response rating: Postemergence, 125 g ai/ha, 0 to 100 scale (0 no effect, 100 complete control)
How it was run: as §1

[11] = test system: rice (Oryza sativa); experiment: Test B flooded paddy test, visual plant response rating; details: 250 g ai/ha, Flood, applied to paddy water, 2-leaf stage, evaluated after 13 to 15 days
How it was run: (§2)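 Plants were raised to the 2-leaf stage, then pots were flooded to 3 cm above the soil and test compound was applied directly into the paddy water. Water depth was held for the whole test; after 13 to 15 days in a greenhouse, responses were scored visually against controls.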

[12] = test system: barnyardgrass (Echinochloa crus-galli); experiment: as above; details: 250 g ai/ha, Flood, applied to paddy water, 2-leaf stage, evaluated after 13 to 15 days
How it was run: as §2

[13] = test system: sedge, umbrella (small-flower umbrella sedge, Cyperus difformis); experiment: as above; details: 250 g ai/ha, Flood, applied to paddy water, 2-leaf stage, evaluated after 13 to 15 days
How it was run: as §2

[14] = test system: ducksalad (Heteranhera limosa); experiment: as above; details: 250 g ai/ha, Flood, applied to paddy water, 2-leaf stage, evaluated after 13 to 15 days
How it was run: as §2

[15] = test system: pigweed (Amaranthus retroflexus); experiment: Test A preemergence, visual plant response rating; details: for Pigweed plant response rating (0 to 100 scale): approx. 10 days; for Pigweed plant response rating: 125 g ai/ha, preemergence, 0 to 100 scale, 0 no effect, 100 complete control
How it was run: as §1

[16] = test system: kochia (Kochia scoparia); experiment: Test A preemergence, visual plant response rating; details: for Kochia plant response rating (0 to 100 scale): approx. 10 days; for Kochia plant response rating: 125 g ai/ha, preemergence, 0 to 100 scale, 0 no effect, 100 complete control
How it was run: as §1

[17] = test system: ragweed (common ragweed, Ambrosia elatior); experiment: Test A preemergence, visual plant response rating; details: for Ragweed plant response rating (0 to 100 scale): approx. 10 days; for Ragweed plant response rating: 125 g ai/ha, preemergence, 0 to 100 scale, 0 no effect, 100 complete control
How it was run: as §1

[18] = test system: barnyardgrass (Echinochloa crus-galli); experiment: Test A preemergence, visual plant response rating; details: for Barnyardgrass plant response rating (0 to 100 scale): approx. 10 days; for Barnyardgrass plant response rating: 125 g ai/ha, preemergence, 0 to 100 scale, 0 no effect, 100 complete control
How it was run: as §1

[19] = test system: foxtail, giant (giant foxtail, Setaria faberii); experiment: Test A preemergence, visual plant response rating; details: for Foxtail, Giant plant response rating (0 to 100 scale): approx. 10 days; for Foxtail, Giant plant response rating: 125 g ai/ha, preemergence, 0 to 100 scale, 0 no effect, 100 complete control
How it was run: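 Preemergence: seeds in loam/sand blend given directed soil spray of compound in non-phytotoxic solvent with surfactant. Postemergence: plants 2–10 cm, one- to two-leaf stage, sprayed with same formulation. Visual injury rated vs untreated controls after ~10 days in greenhouse, 0 (no effect) to 100 (complete control).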

[20] = test system: Italian ryegrass (Lolium multiflorum); experiment: Test A preemergence, visual plant response rating; details: for Ryegrass, Italian plant response rating (0 to 100 scale): approx. 10 days; for Ryegrass, Italian plant response rating: 125 g ai/ha, preemergence, 0 to 100 scale, 0 no effect, 100 complete control
How it was run: as §1

SMILES	Galium plant response rating (0 to 100 scale) [1]	Galium plant response rating [1]	Pigweed plant response rating (0 to 100 scale) [2]	Pigweed plant response rating [2]	Kochia plant response rating (0 to 100 scale) [3]	Kochia plant response rating [3]	Ragweed plant response rating (0 to 100 scale) [4]	Ragweed plant response rating [4]	Barnyardgrass plant response rating (0 to 100 scale) [5]	Barnyardgrass plant response rating [5]	Wheat plant response rating (0 to 100 scale) [6]	Corn plant response rating (0 to 100 scale) [7]	Corn plant response rating [7]	Foxtail, Giant plant response rating (0 to 100 scale) [8]	Foxtail, Giant plant response rating [8]	Ryegrass, Italian plant response rating (0 to 100 scale) [9]	Ryegrass, Italian plant response rating [9]	Blackgrass plant response rating (0 to 100 scale) [10]	Blackgrass plant response rating [10]	Plant response rating, Rice (0 to 100 scale, 0 is no effect, 100 is complete control) [11]	further results
CON=C(c1cccc(Cl)c1)c1c(O)c(C)nn(CC2CC2)c1=O (mixture of isomers) [Compound 4]	0	0	0	0	0	0	0	0	0	0	0	0	0	0	0	0	0	40	0	0	Wheat plant response rating [6]: 0; Plant response rating, Barnyardgrass (0 to 100 scale, 0 is no effect, 100 is complete control) [12]: 0; Plant response rating, Sedge, Umbrella (0 to 100 scale, 0 is no effect, 100 is complete control) [13]: 0; Plant response rating, Ducksalad (0 to 100 scale, 0 is no effect, 100 is complete control) [14]: 0; Pigweed plant response rating (0 to 100 scale) ([15]; 125 g ai/ha Preemergence): 0; Pigweed plant response rating (0 to 100 scale) ([15]; 500 g ai/ha Preemergence): 0; Kochia plant response rating (0 to 100 scale) ([16]; 125 g ai/ha Preemergence): 0; Kochia plant response rating (0 to 100 scale) ([16]; 500 g ai/ha Preemergence): 0; Ragweed plant response rating (0 to 100 scale) ([17]; 125 g ai/ha Preemergence): 0; Ragweed plant response rating (0 to 100 scale) ([17]; 500 g ai/ha Preemergence): 0; Barnyardgrass plant response rating (0 to 100 scale) ([18]; 125 g ai/ha Preemergence): 20; Barnyardgrass plant response rating (0 to 100 scale) ([18]; 500 g ai/ha Preemergence): 70; Foxtail, Giant plant response rating (0 to 100 scale) ([19]; 125 g ai/ha Preemergence): 0; Foxtail, Giant plant response rating (0 to 100 scale) ([19]; 500 g ai/ha Preemergence): 50; Ryegrass, Italian plant response rating (0 to 100 scale) ([20]; 125 g ai/ha Preemergence): 0; Ryegrass, Italian plant response rating (0 to 100 scale) ([20]; 500 g ai/ha Preemergence): 30
CON=C(c1c(O)c(C)nn(C)c1=O)c1cccc2ccoc12 [Compound 60]	70	60	90	50	50	30	40	20	0	0	40	0	0	30	0	20	10	10	0	0	Plant response rating, Barnyardgrass (0 to 100 scale, 0 is no effect, 100 is complete control) [12]: 0; Plant response rating, Sedge, Umbrella (0 to 100 scale, 0 is no effect, 100 is complete control) [13]: 0; Plant response rating, Ducksalad (0 to 100 scale, 0 is no effect, 100 is complete control) [14]: 0; Pigweed plant response rating [15]: 0; Pigweed plant response rating (0 to 100 scale) ([15]; 500 g ai/ha Preemergence): 30; Kochia plant response rating [16]: 0; Kochia plant response rating (0 to 100 scale) ([16]; 500 g ai/ha Preemergence): 0; Ragweed plant response rating [17]: 0; Ragweed plant response rating (0 to 100 scale) ([17]; 500 g ai/ha Preemergence): 30; Barnyardgrass plant response rating [18]: 0; Barnyardgrass plant response rating (0 to 100 scale) ([18]; 500 g ai/ha Preemergence): 0; Foxtail, Giant plant response rating [19]: 10; Foxtail, Giant plant response rating (0 to 100 scale) ([19]; 500 g ai/ha Preemergence): 10; Ryegrass, Italian plant response rating [20]: 0; Ryegrass, Italian plant response rating (0 to 100 scale) ([20]; 500 g ai/ha Preemergence): 40
CCO/N=C(\c1c(O)c(C)nn(C)c1=O)c1ccc(F)c2ccccc12 [Compound 85]	90	80	90	80	90	70	100	90	80	50	50	30	10	80	70	100	90	100	90	0	Wheat plant response rating [6]: 40; Plant response rating, Barnyardgrass (0 to 100 scale, 0 is no effect, 100 is complete control) [12]: 0; Plant response rating, Sedge, Umbrella (0 to 100 scale, 0 is no effect, 100 is complete control) [13]: 0; Plant response rating, Ducksalad (0 to 100 scale, 0 is no effect, 100 is complete control) [14]: 0; Pigweed plant response rating [15]: 100; Pigweed plant response rating (0 to 100 scale) ([15]; 500 g ai/ha Preemergence): 100; Kochia plant response rating [16]: 10; Kochia plant response rating (0 to 100 scale) ([16]; 500 g ai/ha Preemergence): 50; Ragweed plant response rating [17]: 90; Ragweed plant response rating (0 to 100 scale) ([17]; 500 g ai/ha Preemergence): 100; Barnyardgrass plant response rating [18]: 70; Barnyardgrass plant response rating (0 to 100 scale) ([18]; 500 g ai/ha Preemergence): 90; Foxtail, Giant plant response rating [19]: 80; Foxtail, Giant plant response rating (0 to 100 scale) ([19]; 500 g ai/ha Preemergence): 100; Ryegrass, Italian plant response rating [20]: 100; Ryegrass, Italian plant response rating (0 to 100 scale) ([20]; 500 g ai/ha Preemergence): 100
